According to the NIST ThermoML archive (doi:10.1016/j.tca.2006.10.025):

What was measured:
[1] = molar heat capacity at constant pressure; xn = mol fraction of the nth substance listed; details: 303.15 K, 101 kPa, Liquid, Small sample (50 mg) DSC
[2] = excess molar enthalpy (molar enthalpy of mixing); xn = mol fraction of the nth substance listed; details: 303.15 K, 101 kPa, Liquid, Flow calorimetry
[3] = molar heat capacity at constant pressure; details: 101.33 kPa, Liquid, Small sample (50 mg) DSC
[4] = 303.15 K; 101.33 kPa; Liquid; Vibrating tube method

CCCCCCO [hexan-1-ol] + C[S+](C)[O-]
Details | excess molar enthalpy [kcal/mol] | molar heat capacity at constant pressure [J/K/mol]
[1], x2 = 0.1102 | – | 239.9
[1], x2 = 0.1949 | – | 231.7
[1], x2 = 0.2888 | – | 222.5
[1], x2 = 0.3759 | – | 216.5
[1], x2 = 0.4388 | – | 211.5
[1], x2 = 0.535 | – | 199.2
[1], x2 = 0.5365 | – | 199.4
[1], x2 = 0.6311 | – | 190.4
[1], x2 = 0.7339 | – | 181.8
[1], x2 = 0.8062 | – | 171
[1], x2 = 0.8704 | – | 164.7
[1], x2 = 0.9359 | – | 158.8
[2], x2 = 0.0682 | 0.0863 | –
[2], x2 = 0.1277 | 0.153 | –
[2], x2 = 0.1801 | 0.202 | –
[2], x2 = 0.2265 | 0.241 | –
[2], x2 = 0.3053 | 0.286 | –
[2], x2 = 0.3694 | 0.31 | –
[2], x2 = 0.4677 | 0.325 | –
[2], x2 = 0.5394 | 0.326 | –
[2], x2 = 0.6374 | 0.307 | –
[2], x2 = 0.7251 | 0.278 | –
[2], x2 = 0.7786 | 0.248 | –
[2], x2 = 0.8406 | 0.207 | –
[2], x2 = 0.8755 | 0.178 | –
[2], x2 = 0.9134 | 0.134 | –
[2], x2 = 0.9336 | 0.109 | –
[2], x2 = 0.9547 | 0.0791 | –
[2], x2 = 0.9768 | 0.0433 | –

CCCCCCCCO [octan-1-ol]
[3]
Details | molar heat capacity at constant pressure [J/K/mol]
288.15 K | 294.2
293.15 K | 300.3
298.15 K | 304.4
303.15 K | 309.2
308.15 K | 314.4
313.15 K | 319.5
318.15 K | 326.2
323.15 K | 332.7

Details | mass density [kg/m3]
[4] | 818.24

CCCCO [butan-1-ol]
[3]
Details | molar heat capacity at constant pressure [J/K/mol]
288.15 K | 166.2
293.15 K | 171.8
298.15 K | 175.3
303.15 K | 178.9
308.15 K | 182.8
313.15 K | 186.6
318.15 K | 190.8
323.15 K | 194.7

Details | mass density [kg/m3]
[4] | 801.98

CCCCCCCCO [octan-1-ol] + C[S+](C)[O-]
Details | excess molar enthalpy [kcal/mol] | molar heat capacity at constant pressure [J/K/mol]
[1], x2 = 0.0953 | – | 296.5
[1], x2 = 0.1847 | – | 284.2
[1], x2 = 0.3137 | – | 264.7
[1], x2 = 0.3478 | – | 256.2
[1], x2 = 0.4629 | – | 241.9
[1], x2 = 0.5855 | – | 221.6
[1], x2 = 0.6299 | – | 215.1
[1], x2 = 0.7302 | – | 200.6
[1], x2 = 0.7656 | – | 193.2
[1], x2 = 0.842 | – | 182.1
[1], x2 = 0.8956 | – | 173.1
[1], x2 = 0.9603 | – | 162.4
[2], x2 = 0.0847 | 0.112 | –
[2], x2 = 0.1562 | 0.195 | –
[2], x2 = 0.2173 | 0.257 | –
[2], x2 = 0.2702 | 0.29 | –
[2], x2 = 0.3571 | 0.331 | –
[2], x2 = 0.4254 | 0.35 | –
[2], x2 = 0.5262 | 0.354 | –
[2], x2 = 0.5968 | 0.351 | –
[2], x2 = 0.6896 | 0.332 | –
[2], x2 = 0.7692 | 0.304 | –
[2], x2 = 0.8163 | 0.273 | –
[2], x2 = 0.8696 | 0.228 | –
[2], x2 = 0.8988 | 0.195 | –
[2], x2 = 0.9302 | 0.15 | –
[2], x2 = 0.9467 | 0.121 | –
[2], x2 = 0.9638 | 0.0868 | –
[2], x2 = 0.9816 | 0.0468 | –

CCCO [propan-1-ol]
[3]
Details | molar heat capacity at constant pressure [J/K/mol]
288.15 K | 139
293.15 K | 142.3
298.15 K | 144.9
303.15 K | 148.3
308.15 K | 151
313.15 K | 153.7
318.15 K | 157.1
323.15 K | 160.1

Details | mass density [kg/m3]
[4] | 795.48

C[S+](C)[O-] [dimethyl sulfoxide] + CO
Details | excess molar enthalpy [kcal/mol] | molar heat capacity at constant pressure [J/K/mol]
[1], x1 = 0.0308 | – | 84
[1], x1 = 0.061 | – | 85.8
[1], x1 = 0.1103 | – | 88.3
[1], x1 = 0.197 | – | 93.9
[1], x1 = 0.2818 | – | 97.8
[1], x1 = 0.3571 | – | 102.3
[1], x1 = 0.4676 | – | 109.7
[1], x1 = 0.5886 | – | 116.1
[1], x1 = 0.6833 | – | 124.6
[1], x1 = 0.8398 | – | 137.5
[1], x1 = 0.9068 | – | 142.5
[1], x1 = 0.923 | – | 144.6
[2], x1 = 0.0176 | 0.00191 | –
[2], x1 = 0.0233 | 0.00215 | –
[2], x1 = 0.0455 | 0.000717 | –
[2], x1 = 0.0667 | -0.00263 | –
[2], x1 = 0.087 | -0.00765 | –
[2], x1 = 0.1251 | -0.0194 | –
[2], x1 = 0.1601 | -0.0318 | –
[2], x1 = 0.2223 | -0.0543 | –
[2], x1 = 0.276 | -0.0712 | –
[2], x1 = 0.3639 | -0.0908 | –
[2], x1 = 0.4619 | -0.102 | –
[2], x1 = 0.5336 | -0.103 | –
[2], x1 = 0.6318 | -0.0985 | –
[2], x1 = 0.6959 | -0.0891 | –
[2], x1 = 0.7744 | -0.0758 | –
[2], x1 = 0.8207 | -0.0605 | –
[2], x1 = 0.8728 | -0.0442 | –
[2], x1 = 0.9321 | -0.0232 | –

CO [methanol]
[3]
Details | molar heat capacity at constant pressure [J/K/mol]
288.15 K | 78.1
293.15 K | 79.3
298.15 K | 81
303.15 K | 82.2
308.15 K | 83.4
313.15 K | 85.6
318.15 K | 87.5
323.15 K | 89.5

Details | mass density [kg/m3]
[4] | 781.81

CCO [ethanol]
[3]
Details | molar heat capacity at constant pressure [J/K/mol]
288.15 K | 108.8
293.15 K | 111
298.15 K | 113.5
303.15 K | 115.7
308.15 K | 118.6
313.15 K | 121.6
318.15 K | 125.1
323.15 K | 128.2

Details | mass density [kg/m3]
[4] | 780.79

C[S+](C)[O-] [dimethyl sulfoxide]
[3]
Details | molar heat capacity at constant pressure [J/K/mol]
288.15 K | 147.8
293.15 K | 149.4
298.15 K | 151.5
303.15 K | 152.4
308.15 K | 153.4
313.15 K | 155.4
318.15 K | 155.6
323.15 K | 156.6

Details | mass density [kg/m3]
[4] | 1090.45
